Experimental data published in patent publication US20240327459A1, “PEPTIDE FRAGMENTS FOR TREATMENT OF DIABETES” (Follicum AB, priority 2018, published 2024).
Entries after “also recorded” stand apart in the source; their conditions may differ.

How the values were obtained:
Type in all cases: cell-based, rat
INS-1E cells [1] = experiment: Insulin secreting capacity after 72 hours of glucotoxic conditions (Examples 19, 22); details: Example 19, 20 mM glucose 72 hours with peptide, then 16.7 mM glucose 1 h
Procedure: To investigate the β-cell protective effect of FOL-056, we subjected INS-1E to cytotoxic levels of glucose for 72 hours. Rat INS-1E cells were seeded in 96-well plates (2×10^3 cells/well) in cRPMI medium. Following 72 hours of incubation, the medium was changed to RPMI containing 20 mM glucose with or without FOL-056 or FOL-014 and were cultured at 37° C. during an additional 72 hours to induce glucotoxicity. RPMI containing 5 mM glucose was included as a low glucose control. Following 72 hours, the medium was removed and the INS-1E cells were equilibrated in Krebs-Ringer bicarbonate buffer (KREB), pH 7.4, (supplemented with 10 mM HEPES, 0.1% bovine serum albumin and 2.8 mM glucose) for 2 hours. After equilibration, the buffer was changed and the INS-1E cells were incubated in KREBs containing 16.7 mM glucose […] during 1 h. Immediately after incubation, an aliquot of the buffer was removed and frozen for subsequent assay of insulin content.
To investigate the β-cell protective effect of several novel peptide fragments derived from FOL-005 and FOL-014, INS-1 cells were subjected to cytotoxic levels of glucose for 72 hours. […] In order to correct for the variance between experiments, all values were normalized to, and expressed as percentage of the average value of the high glucose control in the individual experiments. […]

INS-1E cells [2] = experiment: Insulin secretion from INS-1E cells (Example 18); details: 100 nM peptide, high (16.7 mM) glucose buffer, 60 min, vs un-supplemented buffer
Procedure: To investigate the stimulatory effect of FOL-056 on insulin secretion we used INS-1E cells. The cells were seeded overnight and washed with PBS before pre-incubation for 60 min at 37° C. in Krebs-Ringer bicarbonate buffer (KRB), pH 7.4, supplemented with 10 mM HEPES, 0.1% bovine serum albumin. Following pre-incubation, the buffer was discarded and the INS-1E cells were incubated in fresh KRB buffer supplemented with 10 mM HEPES, 0.1% bovine serum albumin with or without peptide FOL-056. For comparative purposes cells treated with FOL-014 was included. Following 60 min incubation at 37.C, the buffer was removed and frozen for subsequent insulin assay.

INS-1 β-cells = experiment: Insulin secretion from INS-1 cells, insulin ELISA (Examples 8-11, 20)
Procedure: Materials and methods: Rat INS-1 β-cells (passages 60-70) were cultured at 37° C. and 5% CO2 in cRPMI media (RPMI 1640 supplemented with 10% fetal bovine serum, 50 IU/mL penicillin, 50 mg/L streptomycin, 10 mM HEPES, 2 mM L-glutamine, 1 mM sodium pyruvate, and 50 μM beta-mercaptoethanol) unless otherwise stated. INS-1 cells were seeded in 96-well plates (2×10^3 cells/well) in cRPMI medium and following overnight incubation, the cells were washed in PBS before pre-incubation for 120 min at 37° C. in Krebs-Ringer bicarbonate buffer, pH 7.4, supplemented with 10 mM HEPES, 0.1% bovine serum albumin and 2.8 mM glucose. Following pre-incubation, the buffer was exchanged with fresh Krebs-Ringer buffer as described above and supplemented with specific glucose concentrations and peptides for the individual experiments as described below. Immediately after 60 minutes incubation at 37° C., an aliquot of the buffer was removed and frozen for subsequent insulin ELIZA assay.
Insulin release from INS-1 cells were measured following exposure to increasing concentrations of FOL-014 and compared with the stimulatory effect of GLP-1 and untreated control during high glucose concentration (16.7 mM). […] At 6 nM or higher, FOL-014 triggered insulin release within the same range as 100 nM GLP-1. At concentrations ranging from 0.6-60 nM, insulin secretion increased in a linear fashion in relation to increasing FOL-014 concentrations.
Insulin release from INS-1 cells was measured following exposure to 60 nM FOL-014 at increasing concentrations of glucose. In untreated control samples, elevated glucose concentrations increased the insulin secretion at 11.1 mM glucose or higher. […] (FIG. 6).
Insulin secretion from INS-1 cells was measured following exposure to FOL-005, FOL-014, GLP-1 or combinations of those, expressed as percentage of untreated control. […] The experiments were performed in the presence of 16.7 mM glucose (FIG. 7).
Novel peptide analogues, derived from either FOL-005 or FOL-014 were tested concerning their ability to induce insulin secretion in two separate INS-1 cell lines in the presence of 16.7 mM glucose. FOL-005, FOL-014 and GLP-1 as well as a high glucose (16.7 mM) and a low glucose (2.8 mM) control (not shown) was included in each experiment and the peptide concentration was 100 nM. In order to correct for the variance between experiments, all values were normalized to, and expressed as percentage of the average value of the high glucose control in the individual experiments. The analogues were subsequently ranked according to performance (FIGS. 11A and 11B).
Insulin secretion from INS-1 cells was measured following exposure to FOL-056, GLP-1 or a combination of those, expressed as percentage of untreated control. […] The experiments were performed in the presence of 16.7 mM glucose (FIG. 15).

KPLAEIDSIELSYGIK (MISC_FEATURE - peptide, FOL-014)
insulin secreting ability after glucotoxic conditions (INS-1E cells [1]): significantly improved the insulin secreting ability of the β-cells as compared with high glucose media alone | insulin secretion (INS-1E cells [2]): resulted in a significant increase in insulin secretion | insulin secretion at increasing glucose concentrations (INS-1 β-cells; 60 nM peptide, glucose 5.5 mM or higher, vs untreated control cells): increased significantly in a glucose dependent fashion already from 5.5 mM glucose; also recorded: significantly higher | concentration range in which insulin secretion increased in a linear fashion (INS-1 β-cells; 16.7 mM glucose): 0.6 to 60 nM | concentration triggering insulin release within the same range as 100 nM GLP-1 (INS-1 β-cells; 16.7 mM glucose): ≥ 6 nM | insulin release (INS-1 β-cells; all concentrations tested, 16.7 mM glucose, vs untreated control): elicited significantly higher insulin release as compared with the untreated control; also recorded: significant increase in insulin secretion for all concentrations tested | insulin secretion (INS-1 β-cells; concentrations ≥600 nM, 16.7 mM glucose): did not increase the insulin secretion; also recorded: less pronounced effect on insulin secretion
